# From patent publication US20250295619A1, “Use of Salvianolic Acid E in the Preparation of Drugs Targeting Senescent Cells, Inhibiting Tumors or Extending Lifespan” (Shanghai Institute of Nutrition and Health, Chinese Academy …, priority 2024, published 2025)
# Assays:
# [1] = tested on: PC3/PSC27 tumors; experiment: Disease-free survival of tumor-bearing NOD/SCID mice; type: in vivo, mouse; settings: severe disease at tumor size ≥2000 mm3
# Excerpt: When the tumor volume in the vehicle, MIT, SAE and MIT/SAE groups exceeds 2000 mm3, it is considered that severe disease has occurred, and the mice need to be killed in time and the tumor bearing status should be detected. ^, P>0.05; **, P<0.01.
# Then the survival of animals in different drug-treated groups was compared, primarily in a time-prolonged manner to assess the consequences of tumor progression. In this preclinical cohort, animals were monitored for prostate tumor growth, and severe disease was judged to have occurred once the […] tumor burden in mice was prominent (size≥2000 mm3), which was a method used for assessing progression of tumors and other diseases in certain conditions.
# [2] = tested on: aged C57BL/6 mice; experiment: Lifespan study in aged C57BL/6 mice; type: in vivo, mouse; settings: administered from 24-27 months of age, every two weeks
# Protocol: Starting at 24 to 27 months of age, C57BL/6 mice received intraperitoneal administration of vehicle or SAE every two weeks (n=80 for vehicle group; n=91 for SAE group). The median survival of animals in each group was calculated and indicated. ****, P<0.0001.
# Starting at 24 to 27 months of age, C57BL/6 mice received intraperitoneal administration of vehicle or SAE every two weeks (n=80 for vehicle group; n=91 for SAE group). The median lifetime survival of animals in each group was calculated and indicated. ****, P<0.0001.
# For the cell transplantation study, the inventors obtained […] male C57BL/6 mice by serial rearing in the SPF animal platform, with 4 to 5 animals per cage. The inventors first sorted the mice by body weight from low to high, and then selected mice with similar body weights. Next, the mice were assigned to senescence (SEN) or control (CTRL) transplant treatment at each interval using a random number generator, while the middle mice were assigned to the other treatment, so that the body weights of the senescence and control transplant mice were matched. One month after cell transplantation, when the mice were 18 months old, physical function tests were performed. After that, no further testing was done on the mice other than checking their cages. The earliest deaths occurred approximately 2 months after the last physical function test. […]
# [3] = tested on: SASP factors; experiment: LCM and qRT-PCR of SASP factors in mouse lesions; type: in vivo; settings: MIT/SAE vs MIT
# Protocol: The stromal cells and cancer cells were specifically separated by LCM technology, total RNA was prepared and used for SASP expression detection. ^, P>0.05; *, P<0.05; **, P<0.01.
# In a preclinical treatment trial, subcutaneously transplanted mice were fed with a standard experimental diet, after 2 weeks chemotherapy drugs mitoxantrone (MIT, dose: 0.2 mg/kg) and/or SAE (500 μl, dose: 10 mg/kg) via intraperitoneal administration. The time points were: the former was administrated on the first day of the 3rd, 5th and 7th weeks, and the latter was administrated on the first day of the 5th and 7th weeks. A total of 3 cycles of MIT administration were carried out throughout the course of treatment, and each cycle lasted for 2 weeks. After the course of treatment, mouse tumors were harvested for volume measurement and histological analysis. Each mouse cumulatively received 0.6 mg/kg body weight of MIT and 30 mg/kg body weight of SAE. In order to cause systemic expression of SASP factors induced by chemotherapy, MIT was administered to mice through intravenous infusion according to the above steps and sequence, but the dose was reduced to 0.1 mg/kg body weight/each time (the cumulative dose of MIT received in the whole course of treatment was 0.3 mg/kg body weight) to reduce drug-related toxicity. […]
# [4] = tested on: PSC27; experiment: CCK8 survival of proliferating and senescent PSC27 cells; type: cell-based, human
# Protocol: To cause cell damage, 50 μg/mL bleomycin (bleomycin, BLEO) was added to the culture medium when PSC27 cells grew to 80% (abbreviated as PSC27-CTRL). After 12 hours of drug treatment, the cells were simply washed 3 times with PBS, left in the culture medium for 7-10 days, and then the subsequent experiments were performed.
# Pharmacodynamic analysis was conducted on an organic chemical drug library (TOPSCIENCE) with a total of 1470 small molecule compounds, mostly derived from medicinal plants and had anti-senescence potential. Each product was diluted to a 96-well plate according to a certain concentration gradient, and the density was 5000 cells per well. The medium uses DMEM, and the working concentration of natural product (or compound) is generally controlled at […] to 1 mM. After 3-7 days of drug treatment, cell proliferation was measured with CCK-8 Cell Counting Kit (based on WST-8 principle, Vazyme), and cell apoptosis activity was determined with Caspase 3/7 Activity Kit (Promega).
# [5] = tested on: PC3/PSC27 transplanted tumors; experiment: PC3/PSC27 xenograft tumor volume in NOD/SCID mice; type: in vivo, mouse; settings: single agent
# Protocol: Every two weeks was a dosing cycle, and MIT (mitoxantrone) was intraperitoneally administered to the mice on the first day of the 3rd/5th/7th weeks. From the first day of the 5th week, the mice were intraperitoneally administered with SAE, […]. After the 8-week course of treatment, the mice were dissected for pathological identification and expression analysis.
# All experimental mouse experiments were carried out in strict accordance with the relevant regulations of the Institutional Animal Care and Use Committee (IACUC), Shanghai Institutes for Biological Sciences, Chinese Academy of Sciences. Immuno-deficient mice (NOD-SCID mice, ICR) (body weight about 25 g) aged 6-8 weeks were used for animal experiments related to the present patent. Stromal cells PSC27 and epithelial cells PC3 were mixed at a predetermined ratio of 1:4, and each graft contained 1.25×10^6 cells for tissue remodeling. The xenograft tumors were implanted into mice by subcutaneous transplantation, and the animals were euthanized 8 weeks after the end of the transplantation surgery. Tumor volume was calculated according to the following formula: V=(π/6)×((1+w)/2)3 (V, volume; l, length; w, width).
# In a preclinical treatment trial, subcutaneously transplanted mice were fed with a standard experimental diet, after 2 weeks chemotherapy drugs mitoxantrone (MIT, dose: 0.2 mg/kg) and/or SAE (500 μl, dose: 10 mg/kg) via intraperitoneal administration. The time points were: the former was administrated on the first day of the 3rd, 5th and 7th weeks, and the latter was administrated on the first day of the 5th and 7th weeks. A total of 3 cycles of MIT administration were carried out throughout the course of treatment, and each cycle lasted for 2 weeks. After the course of treatment, mouse tumors were harvested for volume measurement and histological analysis. Each mouse cumulatively received 0.6 mg/kg body weight of MIT and 30 mg/kg body weight of SAE. In order to cause systemic expression of SASP factors induced by chemotherapy, MIT was administered to mice through intravenous infusion according to the above steps and sequence, but the dose was reduced to 0.1 mg/kg body weight/each time (the cumulative dose of MIT received in the whole course of treatment was 0.3 mg/kg body weight) to reduce drug-related toxicity. The chemotherapy experiment ended at the end of the 8th week, and the mice were dissected immediately after sacrifice, and the xenograft tumors were collected and used for pathological system analysis.
smiles,measurement,setting,value
"O=C(/C=C/c1ccc(O)c(O)c1/C(=C\c1ccc(O)c(O)c1)C(=O)O[C@H](Cc1ccc(O)c(O)c1)C(=O)O)O[C@H](Cc1ccc(O)c(O)c1)C(=O)O [SAE, salvianolic acid E]",median survival of tumor-bearing mice,[1],only a marginal extension of survival
same,risk of death HR (SAE group/vehicle group),[2],0.3249
same,change of SASP factor expression when SAE was administered,[3],largely reversed
same,percentage of surviving senescent cells,[4]; SAE 2000 μM,approximately 10%
same,survival of proliferating cells,[4]; SAE 3000 μM,not significantly reduced
same,concentration from which significant death of senescent cells is induced,[4]; vs control proliferating cells,200 µM
same,tumor shrinkage by the agent itself,[5],did not cause tumor shrinkage
